No end group written: not given here.
System: Anti-PACAP antibodies (capture Lu AG20136, detection Lu AG20141)
Test: Reactivity in PACAP MSD S-PLEX sandwich immunoassay
Assay type: binding
Conditions: sandwich ECL immunoassay

Molecule	Reactivity in PACAP MSD S-PLEX assay
vasoactive intestinal peptide (HSDAVFTDNYTRLRKQMAVKKYLNSILN; ends and bridges not checked; UniProt P01282 125-152, looked up) [VIP]	No reactivity
ceruloplasmin: protein tested for interaction in the PACAP assay (protein, UniProt P00450 20-1065, looked up) Ceruloplasmin: KEKHYYIGIIETTWDYASDHGEKKLISVDTEHSNIYLQNGPDRIGRLYKKALYLQYTDETFRTTIEKPVWLGFLGPIIKAETGDKVYVHLKNLASRPYTFHSHGITYYKEHEGAIYPDNTTDFQRADDKVYPGEQYTYMLLATEEQSPGEGDGNCVTRIYHSHIDAPKDIASGLIGPLIICKKDSLDKEKEKHIDREFVVMFSVVDENFSWYLEDNIKTYCSEPEKVDKDNEDFQESNRMYSVNGYTFGSLPGLSMCAEDRVKWYLFGMGNEVDVHAAFFHGQALTNKNYRIDTINLFPATLFDAYMVAQNPGEWMLSCQNLNHLKAGLQAFFQVQECNKSSSKDNIRGKHVRHYYIAAEEIIWNYAPSGIDIFTKENLTAPGSDSAVFFEQGTTRIGGSYKKLVYREYTDASFTNRKERGPEEEHLGILGPVIWAEVGDTIRVTFHNKGAYPLSIEPIGVRFNKNNEGTYYSPNYNPQSRSVPPSASHVAPTETFTYEWTVPKEVGPTNADPVCLAKMYYSAVEPTKDIFTGLIGPMKICKKGSLHANGRQKDVDKEFYLFPTVFDENESLLLEDNIRMFTTAPDQVDKEDEDFQESNKMHSMNGFMYGNQPGLTMCKGDSVVWYLFSAGNEADVHGIYFSGNTYLWRGERRDTANLFPQTSLTLHMWPDTEGTFNVECLTTDHYTGGMKQKYTVNQCRRQSEDSTFYLGERTYYIAAVEVEWDYSPQREWEKELHHLQEQNVSNAFLDKGEFYIGSKYKKVVYRQYTDSTFRVPVERKAEEEHLGILGPQLHADVGDKVKIIFKNMATRPYSIHAHGVQTESSTVTPTLPGETLTYVWKIPERSGAGTEDSACIPWAYYSTVDQVKDLYSGLIGPLIVCRRPYLKVFNPRRKLEFALLFLVFDENESWYLDDNIKTYSDHPEKVNKDDEEFIESNKMHAINGRMFGNLQGLTMHVGDEVNWYLMGMGNEIDLHTVHFHGHSFQYKHRGVYSSDVFDIFPGTYQTLEMFPRTPGIWLLHCHVTDHIHAGMETTYTVLQNEDTKSG	no interaction

Source: paper doi:10.1101/2025.03.04.25323177v1 (medRxiv, 2025)
